Key:
[1] = molecular target: Sm.5HTR (Schistosoma mansoni, UniProt A0A173FEI8); test: cell-based
Protocol: HEK293 cells (ATCC CRL-1573.3) were cultured in growth media consisting of DMEM supplemented with GlutaMAX (Gibco cat #10566016)+10% heat inactivated fetal bovine serum and penicillin-streptomycin (100 units/mL, ThermoFisher). Stable cell lines for the pGloSensor-22F cAMP Plasmid (Promega) and schistosome 5HTRs in pcDNA3.1(−) were selected with hygromycin (200 μg/mL) and G418 (400 μg/mL). The correct identity of each stably expressed sequence was verified by isolating total RNA from each stable line (TRIzol Reagent, Ambion) and amplifying the sequence of interest with gene specific primers flanking the 5′ and 3′ regions of the cds (SuperScript® III One-Step RT-PCR System, Invitrogen). PCR products were ligated into a TA cloning vector (pGEM-T Easy, Promega) and sequenced.
HEK293 lines stably expressing both the 22F cAMP sensor and Sm.5HTR were cultured in growth media supplemented with 10% dialyzed FRS. For cAMP assays in 96 well format, cells cultured in T-75 flasks were trypsinized (TrypLE Express, Gibco) and plated in solid white 96 well plates (Costar cat #3917) the day prior to assay at a density of 2.5×10^4 cells/well. The following day media was removed and replaced with assay buffer consisting of HBSS buffered with HEPES (20 mM, pH 7.4)+BSA (0.1% w/v) and D-luciferin sodium salt (1 mg/mL, Gold Biotechnology). Plates were equilibrated at room temperature for 1 hour, at which point 3-Isobutyl-1-methylxanthine (IBMX 200 μM, Sigma Aldrich) was added. Plates were equilibrated a further 30 minutes prior to test compound addition. […] Readings performed in 384 well format were modified so that cells were assayed in suspension. Cells were grown to 70% confluence in T-75 flasks, trypsinized and pelleted (300 RCF×5 minutes). Media was removed and cells were resuspended in 25 mL assay buffer supplemented with IBMX (200 μM). A 96 channel semi-automated pipet (Eppendorf epMotion 96) delivered 55 μL of cell suspension per well (5000 cells/well) into solid white 384 plates (Corning 3574).

[2] = system: adult schistosomes; test: Egg laying assay, adult schistosome pairs in vitro; type: cell-based, Schistosoma mansoni; conditions: serotonin 100 μM, forskolin 100 μM, LSD 10 μM, nuciferine 10 μM, ergotamine 5 μM (FIG. 19F); eggs per worm pair/day over five days
From the text: (§1) Female Swiss Webster mice infected with S. mansoni cerceria (NMRI strain) were sacrificed 49 days post infection by CO2 euthanasia. Adult schistosomes were recovered by perfusion with a solution of 0.85% sodium chloride+0.75% sodium citrate and dissection of the mesenteric vasculature. Harvested schistosomes were washed in RPMI 1640 Medium with GlutaMAX+5% heat inactivated FBS (Gibco) and Penicillin-Streptomycin (final concentration 100 units/mL, ThermoFisher cat #15140122).
For egg laying assays, adult schistosomes were transferred to 24 well plates the day after harvesting from mice (5 worm pairs in 2 mL media per well). Eggs were counted under a stereomicroscope daily, after which worms were transferred to a new well with fresh drug containing media. Egg counts were recorded for five days, and data processed as the mean number of eggs laid per worm pair/day. Measurements of egg dimensions were quantified using the “analyze>measure” function in ImageJ to record the length and width of individual eggs.

[3] = system: adult S. mansoni; test: Movement assay of cultured adult S. mansoni (Example 2); type: cell-based; conditions: Schistosoma mansoni; for IC50: read-out: IC50, inhibition of serotonin evoked schistosome movement
From the text: as §1
For movement assays, worms were cultured 37° C./5% CO2 in vented 100×25 mm petri dishes (ThermoFisher cat #4031) containing 50 mL of media and used between 1-3 days after harvesting. Prior to assessing worm movement, individuals were transferred to a six well dish (4-5 individuals per well) containing 3 mL drug solution in RPMI 1640 supplemented with HEPES (25 mM) and MS (5%). Videos were recorded using a Zeiss Discovery v20 stereomicroscope and a QiCAM 12-bit cooled color CCD camera controlled by metamorph imaging software (version 7.8.1.0). 1 minute recordings were acquired at 4 frames per second, saved as a .TIFF stack, and movement was analyzed using ImageJ software as described in (PMID: 27187180, PMID: 27397763).

[4] = molecular target: T1, Sm.5HTR (Schistosoma mansoni, UniProt G4V5G4); type: cell-based; conditions: 10 μM for 30 minutes, washout, 5-HT response 1 hour later (FIGS. 11B-D)
Protocol: Colors correspond to drug identity in C&D. Data represent mean±s.e.m., n=3 (C-E).
To test putative irreversible antagonists, assays on suspension cells were performed one day post transfection. Cells in a T-75 flask were trypsinized (0.25% w/v) and transferred to a 14 mL tube, centrifuged at 300 RCF, and resuspended in HBSS supplemented with 0.1% BSA, 20 mM HEPES. Compounds were added at 10 μM, and after 30 minutes incubation at room temperature cells were centrifuged (300 RCF, 5 minutes) and resuspended in fresh media. This wash step was repeated, and cells were resuspended in HBSS supplemented with 0.1% BSA, 20 mM HEPES and GloSensor reagent. […]

[5] = molecular target: T1, Sm.5HTR; type: cell-based
Protocol: (§2) HEK293 cells (ATCC CRL-1573.3) were cultured in DMEM supplemented with 10% fetal bovine serum (FBS), penicillin (100 units/mL), streptomycin (100 μg/mL), and L-glutamine (290 μg/mL). Cells were transiently transfected (ViaFect, Promega) as per the manufacturer's protocol at a density of 2×10^6 cells per T-25 cell-culture flask. Cells were transfected with plasmids encoding GloSensor (Promega) and either Sm.5HTR, (Smp_126730, GenBank accession number KF444051.1) or Sm.5HTRL (KX150867), both GPCRs being codon optimized for mammalian expression, or Hs.5HT7a (GenBank accession number NM_000872.4, R&D Systems) subcloned into pCS2(−). Cell culture reagents were from Invitrogen. Epitope tagged constructs were used to verify expression, and untagged constructs used for all luminescence assays.
(§3) For assays performed on adherent cells, HEK-293 cells were transferred one day post transfection to 96 well, solid white plates (Corning, cat #3917) coated with 0.01% poly-L-lysine (Sigma Aldrich) at a density of 5×10^4 cells/well in DMEM supplemented with 1% dialyzed FBS (Gibco). After overnight culture (37° C./5% CO2), media was decanted and replaced with 100 μL/well HBSS supplemented with 0.1% BSA, 20 mM HEPES (pH 7.4) and GloSensor™ reagent. Plates were allowed to equilibrate at room temperature for two hours prior to performing luminescence assays (GloMax-Multi Detection System plate reader, Promega). Conditions for individual assays were described as per figure legends. The standard assay to detect changes in cAMP utilized the F22 sensor in media supplemented with IBMX (200 μM). Ligands were added at a concentration of 20× per well for experiments (i.e., 5 μl of drug solution added to 100 μL of cells). […] For the resazurin reduction assay for cellular viability, cells were incubated with resazurin (final concentration, 10 μM) and tested ligands with fluorescence measurements (560 nm excitation/590 nm emission) made at 1.5 hours intervals.
(§4) The protocol for screening is shown schematically in FIG. 5A. HEK293 cells transiently transfected with either the human 5HT7 receptor (Hs.5HT7R) or the schistosome receptor (Sm.5HTR) were exposed to test ligands in a 96-well plate format. […] Luminescence was then read at a fixed time point (t=60 minutes, FIG. 5A). Hits were assigned as compounds that evoked a ≥50% decrease in luminescence output at the fixed time sampling point (FIG. 5B).

[6] = molecular target: Sm.5HTRL (Schistosoma mansoni, UniProt A0A173FEI8); test: GloSensor cAMP assay, HEK293 cells transiently transfected with Sm.5HTRL; type: cell-based
Protocol: as §2, §3

[7] = system: S. mansoni; test: Hepatic shift assay in infected mice; type: in vivo, Schistosoma mansoni; conditions: intraperitoneal, ergotamine 95, praziquantel 100, methylergometrine 50, lisuride 10, dihydroergotoxine 60 mg/kg, euthanized three hours later
Protocol: Female Swiss Webster mice were exposed to 200 S. mansoni cerceria (NMRI strain) at between 4-6 weeks old. For hepatic shift assays, infections were allowed to mature to 7 weeks, at which point mice were given test compounds by intraperitoneal injection and euthanized […]. Compounds were solubilized in 50 μL DMSO, and diluted in 200 μL 5% w/v trappsol (Cyclodextrin Technologies Development, THPB-p-31 g)+saline (NaCl 0.9%) solution. Immediately after being euthanized, mice were dissected to remove the liver from the portal vein, and the number of worms recovered from the portal vein, mesenteries and liver was recorded for each mouse.
Several experiments using a murine model of schistosomiasis were carried out in order to test the anthelmintic efficacy of Sm.5HTR ligands in vivo. First, the acute effect of drugs were assessed using a “heptic-shift” assay; mature parasites normally reside within the mesenteric vasculature, and upon exposure to anthelmintics they dislodge and are swept to the liver^12,13 where they may be cleared from the host^14 (FIG. 20B-F).
Given that the current anthelmintic therapy, praziquantel, disrupts worms and results in a rapid shift from the mesenteric vasculature to the liver (Melhorn et al., 1981) (FIG. 20B-F), it was hypothesized that Sm.5HTR ligands that disrupt parasite movement would cause a similar hepatic shift. Compounds were delivered by intraperitoneal injection and mice were euthanized three hours later in order to quantify the number of worms found in the mesentaries, portal vein or liver.

[8] = molecular target: T2, Hs.5HT7R (Homo sapiens, UniProt P34969); test: GloSensor cAMP assay, HEK293 cells transiently transfected with Hs.5HT7R; type: cell-based; conditions: inhibition of cAMP generation
T2 construct: host or cells: HEK293 (ATCC CRL-1573.3), transient, pCS2(−), co-transfected with GloSensor
Protocol: as §2, §3, §4

[9] = system: S. mansoni schistosomules; test: Schistosomule contractility assay; type: cell-based; conditions: Schistosoma mansoni, read-out: IC50, inhibition of 5-HT evoked contractions
Protocol: FIGS. 14A-14F. […] Effects of selected ligands on schistosomules. […] A contractile cycle is defined when a deviation of ≥20% of the average body length (dashed lines) occurs.
Biomphalaria glabrata (M-line) snails exposed to Schistosoma mansoni miracidia (Strain PR-1) were obtained from BEI Resources (Cat. number NR-21961) and cercaria were shed following exposure to light (1.5 hours). Cercaria were manually transformed into schistosomula by vortexing (3×45 seconds, each separated by 3 minutes on ice) and tails were removed by gradient centrifugation (24 mL Percoll, 4 mL 10×EMEM, 1.5 ml penicillin-streptomycin, 1 mL of 1M HEPES in 0.85% NaCl, 9.5 ml distilled water) at 500 g/15 minutes at 4° C. Supernatant containing tails was discarded, and schistosomules were resuspended in Basch media and incubated (37° C., 5% CO2) overnight before conducting mobility assays. For contractility experiments, somules were incubated in 5-HT free Basch media to resolve a basal contractility rate. […] Schistosomules were incubated in 24 well plates (about 200 schistosomules/0.5 mL media per well) for 30 minutes (37° C./5% CO2) prior to acquiring videos of schistosome movement (1 minute recordings/well) using a Nikon Coolpix 5700 camera affixed to a Nikon Eclipse TS100 microscope (10× objective). The WrmTrck plugin for ImageJ was used to quantify worm mobility (El-Shehabi et al., 2012). Briefly, the major axis of each schistosomule body length was extracted from the raw output of WrmTrck and an average length was determined for the duration of the recording. Contractions were quantified by determining the number of episodes during which the worm body length deviated from the average by over 20%. S. mansoni protocols were approved by the Iowa State University Institutional Biosafety Committee.

T1 sequence (G4V5G4 entry or part of it): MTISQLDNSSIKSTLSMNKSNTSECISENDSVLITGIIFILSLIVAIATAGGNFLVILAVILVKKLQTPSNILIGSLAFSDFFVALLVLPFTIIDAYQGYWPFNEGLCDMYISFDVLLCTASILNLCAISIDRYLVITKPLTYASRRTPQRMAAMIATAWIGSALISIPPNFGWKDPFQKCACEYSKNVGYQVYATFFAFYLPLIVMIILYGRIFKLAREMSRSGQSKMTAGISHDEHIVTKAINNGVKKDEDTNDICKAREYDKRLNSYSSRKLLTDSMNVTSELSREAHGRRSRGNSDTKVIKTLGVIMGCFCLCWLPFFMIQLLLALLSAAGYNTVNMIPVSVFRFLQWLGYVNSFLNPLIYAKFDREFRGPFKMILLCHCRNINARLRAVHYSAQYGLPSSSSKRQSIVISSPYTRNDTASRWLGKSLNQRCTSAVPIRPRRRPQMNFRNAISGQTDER
Chain of Sm.5HTR (Schistosoma mansoni, UniProt A0A173FEI8) (A0A173FEI8 entry or part of it): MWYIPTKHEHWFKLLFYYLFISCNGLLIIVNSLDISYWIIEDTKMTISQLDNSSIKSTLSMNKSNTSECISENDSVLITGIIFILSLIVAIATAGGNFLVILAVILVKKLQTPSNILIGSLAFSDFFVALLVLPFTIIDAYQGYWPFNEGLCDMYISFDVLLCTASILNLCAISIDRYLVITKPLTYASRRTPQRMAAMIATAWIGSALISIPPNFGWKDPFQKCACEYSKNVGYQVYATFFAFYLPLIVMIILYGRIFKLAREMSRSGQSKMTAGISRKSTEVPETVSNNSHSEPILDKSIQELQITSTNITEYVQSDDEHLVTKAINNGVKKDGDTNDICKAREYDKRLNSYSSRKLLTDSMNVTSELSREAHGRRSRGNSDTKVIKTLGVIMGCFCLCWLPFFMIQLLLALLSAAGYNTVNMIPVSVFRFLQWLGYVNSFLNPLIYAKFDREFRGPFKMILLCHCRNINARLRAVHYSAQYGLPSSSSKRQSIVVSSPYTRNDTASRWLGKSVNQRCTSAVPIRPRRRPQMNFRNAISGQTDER
Chain of Sm.5HTRL (A0A173FEI8 entry or part of it): as above
T2 sequence (P34969 1-445 isoform P34969-2): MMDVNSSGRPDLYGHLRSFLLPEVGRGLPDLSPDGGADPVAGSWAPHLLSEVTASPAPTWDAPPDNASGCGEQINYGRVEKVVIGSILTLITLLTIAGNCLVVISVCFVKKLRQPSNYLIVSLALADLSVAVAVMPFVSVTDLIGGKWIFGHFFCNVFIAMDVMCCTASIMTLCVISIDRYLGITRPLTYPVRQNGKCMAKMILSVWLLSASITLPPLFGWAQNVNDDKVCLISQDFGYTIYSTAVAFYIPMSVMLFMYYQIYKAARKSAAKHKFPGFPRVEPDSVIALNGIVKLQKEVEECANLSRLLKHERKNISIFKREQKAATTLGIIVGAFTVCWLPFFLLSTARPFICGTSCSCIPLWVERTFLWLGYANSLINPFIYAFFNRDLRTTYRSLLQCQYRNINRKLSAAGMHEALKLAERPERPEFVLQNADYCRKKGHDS

CCN(CC)C(=O)[C@@H]1C=C2c3cccc4[nH]c(Br)c(c34)C[C@H]2N(C)C1 [BOL-148, 2-bromo-lysergic acid diethylamide]
IC50 ([1]; 5-HT 500 nM, read-out: Sm.5HTR IC50 (antagonist)): 100 ± 20 nM
agonist activity at Sm.5HTR, in words ([1]; FIG. 18C): Agonist activity is eliminated
decrease of egg laying [2]: no effect
IC50 [3]: 29 ± 23 nM

CN1C[C@H](CNC(=O)OCc2ccccc2)C[C@@H]2c3cccc4c3c(cn4C)C[C@H]21 [metergoline]
persistence of Sm.5HTR inhibition after antagonist wash-out [4]: long-lasting inhibition
agonist efficacy at Sm.5HTR, in words ([5]; FIG. 10A): no efficacy
Kb ([5]; antagonism of 5-HT evoked cAMP accumulation, FIG. 10F, read-out: affinity constants (KB), Schild regression analysis): 4530 nM
nature of antagonism: right-shift in the 5-HT dose-response relationship ([5]; increasing doses of ligand, FIGS. 10B-D): competitive antagonism

NCCc1c[nH]c2ccc(O)cc12 [5-HT, Serotonin]
EC50 ([6]; 5-HT dose response, FIG. 2H, read-out: EC50, activation of Sm.5HTRL): 200 ± 30 nM
greater sensitivity of Sm.5HTRL compared with Sm.5HTR ([6]; ratio of 5-HT EC50): about 10 fold
decrease of egg laying [2]: 83%
EC50 ([3]; FIG. 19B, read-out: EC50, stimulation of adult schistosome movement): 52000 ± 2000 nM

CSc1ccc2c(c1)C(N1CCN(C)CC1)Cc1ccccc1S2 (centres unmarked) [methiothepin]
persistence of Sm.5HTR inhibition after antagonist wash-out [4]: long-lasting inhibition
antagonism of 5-HT stimulated cAMP generation ([5]; methiothepin 10 μM preincubation, 5-HT 10 μM, IBMX 200 μM (FIG. 2G)): antagonism of 5-HT stimulated cAMP generation

CCN(CC)C(=O)N[C@H]1C=C2c3cccc4[nH]cc(c34)C[C@H]2N(C)C1 [lisuride]
% of worm burden found in the liver [7]: no difference relative to control animals

CC[C@@H](CO)NC(=O)[C@@H]1C=C2c3cccc4[nH]cc(c34)C[C@H]2N(C)C1 [methylergometrine]
Emax ([1]; HEK293, agonist read, 45 minutes, read-out: Sm.5HTR Emax): 50 ± 17%
% of worm burden found in the liver [7]: 50.6±28.5%

CC(C)C[C@H]1C(=O)N2CCC[C@H]2[C@]2(O)O[C@](NC(=O)[C@@H]3C=C4c5cccc6[nH]c(Br)c(c56)C[C@H]4N(C)C3)(C(C)C)C(=O)N12 [bromocriptine]
potency (IC50) at Hs.5HT7R, lower right quadrant of FIG. 13 [8]: supra-μM potency
IC50 [9]: ≤ 1000 nM
higher selectivity for the parasitic 5-HT receptor ([5]; Sm.5HTR over Hs.5HT7R): about 10 fold
potency (IC50) at Sm.5HTR, lower right quadrant of FIG. 13 ([5]; inhibition of cAMP generation): sub-μM potency
IC50 [3]: 251 ± 67 nM

Cc1nc2n(c(=O)c1CCN1CCC(c3noc4cc(F)ccc34)CC1)CCCC2 [risperidone]
persistence of Sm.5HTR inhibition after antagonist wash-out [4]: long-lasting inhibition
